Test results from patent publication US11267859B2, “GM-CSF mimetics and methods of making and using same” (The Regents of the University of Colorado, a body corporate, priority 2017, dated 2022).

Assays:
TF-1 cells [1] = assay: ATPlite viability assay of GM-CSF-dependent TF-1 cells grown without GM-CSF; format: cell-based, human; details: for activity as a GM-CSF mimetic/agonist: summary statement citing FIGS. 1A-1B, FIGS. 2A-2C; for GM-CSF receptor agonist activity (cell viability, ATPlite): TF-1 cells without GM-CSF, 1 nM, 10 nM or 50 nM
Procedure: FIGS. 1A-1B comprise bar graphs illustrating use of the ATPlite assay to examine the viability of the GM-CSF-dependent human erythroleukemic cell line TF-1 (Hansen, et al., 2008, Cell 134(3):496-507) treated with GM-CSF mimetics of the invention (M1, M5, or M6; 1 nM, 10, nM, or 50 nM). TF-1 cells grown in the absence of GM-CSF (control) served as a negative control, and TF-1 cells grown in the presence of GM-CSF (GM-CSF; 0.7 nM) served as a positive control. […] Error bars represent standard error of the mean. *** indicates P<0.0001, * indicates P≤0.03, compared to control.
In order to determine whether a synthetic fragment of GM-CSF or a construct comprising a combination of GM-CSF fragments linked together using PEG linkers is an agonist of the GM-CSF receptor, human cell lines dependent on GM-CSF for proliferation were employed: specifically, the human hematopoietic cell line TF-1 (Hansen, et al., 2008, Cell 134(3): 496-507) and the human cell line MOTE (Monfardini, et al., 2002, Curr Pharm Des 8(24):2185-2199) (both obtained from American Type Culture Collection, or ATCC).
In experiments with the TF-1 cell line, it was determined whether the GM-CSF mimetics of the invention were sufficient to support cell growth and viability in the absence of GM-CSF. Specifically, the cells were grown in medium without GM-CSF (control) as a negative control, in medium supplemented with GM-CSF (GM-CSF; 0.7 nM) as a positive control, or in medium supplemented with one of the GM-CSF mimetics of the invention (i.e., M1, M5, or M6; 1 nM, 10 nM, or 50 nM; FIGS. 1A-1B). Cell viability was measured using the ATPlite assay (PerkinElmer) to determine whether the GM-CSF mimetics of the invention were capable of maintaining the viability of TF-1 cells, which require GM-CSF, thus providing a measure of agonist activity.

[2] = test system: transgenic mice that express the human GM-CSF receptor (hGMR mice); assay: Blood neutrophil response in transgenic hGMR mice after subcutaneous injection for three days; format: in vivo, mouse; details: s.c.; for percentage of neutrophils at 72 h versus 0 h (paired T-test): three days, P<0.0019 for GM-CSF, P<0.0052 for M6
Procedure: FIGS. 3A-3B comprise a plot illustrating % change in neutrophil levels in blood from transgenic hGMR mice (Nishijima, et al., 1995, Mol. Biol. Cell 6(5):497-508) treated with saline (3 days) as a negative control, with human GM-CSF (hGM-CSF, 5 μg/day×3 days) as a positive control, with the GM-CSF mimetic M1 (M1 5 μg/day×3 days), or with the GM-CSF mimetic M6 (M6, 5 μg/day×3 days) (FIG. 3A). Each connected symbol represents an individual hGMR mouse pre- and post-treatment (0 h and 72 h, respectively). Error bars represent standard error of the mean. […] To determine whether the PEG-based GM-CSF mimetics of the invention are active in vivo, the GM-CSF mimetic molecules M1 and M6 were tested in transgenic mice that express the human GM-CSF receptor and are responsive to human GM-CSF, referred to herein as hGMR mice (Nishijima, et al., 1995, Mol. Biol. Cell 6(5):497-508). The hGMR mice were tested for their responses to M1 or M6. Specifically, the study included four groups of mice: (1) hGMR mice injected subcutaneously with saline (n=4 mice) as a negative control (Saline); (2) hGMR mice injected subcutaneously with commercial human GM-CSF ([…]; n=13 mice) as a positive control, because these mice should respond to human GM-CSF; (3) hGMR mice injected subcutaneously with M1 (5 μg/animal/day; n=5 mice); and (4) hGMR mice injected subcutaneously with M6 (5 μg/animal/day; n=6 mice) for three days. Blood samples were collected before the mice received any injections of saline, human GM-CSF, M1, or M6, and blood samples were also collected after the three days of injections. The percentage of neutrophils present in the blood post-treatment was measured by counting from whole blood smears. FIG. 3A illustrates trends in the percentages of neutrophils in individual mice from each of the four groups; each connected symbol represents an individual hGMR mouse pre- and post-treatment (0 h and 72 h, respectively). FIG. 3B compares the changes in the percentage of neutrophils over the course of the treatment for each of the four groups.

TF-1 cells [3] = assay: Live cell counts of GM-CSF-starved TF-1 cells by flow cytometry (DAPI); format: cell-based, human; details: TF-1 starved of GM-CSF 24 h, FIG. 2A
Procedure: FIGS. 2A-2C illustrate results of experiments wherein the GM-CSF-dependent human erythroleukemic cell line TF-1 was starved of GM-CSF for 24 h prior to treatment with media containing GM-CSF, with medium containing a GM-CSF mimetic (M1, M5 or M6; 10 nM or 100 nM), or with control medium lacking GM-CSF. The cells were fed fresh medium each day to replenish indicated concentrations (10 nM or 100 nM). Live cell counts from 3-4 replicates were plotted for each of the different conditions in FIG. 2A. […] The plots were gated by front and side scatter for singlets, then gated by DAPI, wherein DAPI-positive cells were dead and DAPI-negative cells were alive, and front scatter for live cells indicated in the selected region with the cell numbers represented below the plots.
Evaluation of ability of the GM-CSF mimetics to support cell growth was carried out by measuring cell number and cell viability by flow cytometry. The TF-1 cell line was first starved of GM-CSF for 24 h, and then plated in various conditions. […] At 72 h post-treatment, the cells were treated with DAPI (1 μg/ml) to label the nuclei of dead cells and were analyzed on a Yeti cell analyzer from Propel Labs. […] Each dot represents an individual measured cell, and increased color by “heat map” indicates a large group of cells with overlapping DAPI and forward scatter area.

Row | Substance | activity as a GM-CSF mimetic/agonist (TF-1 cells [1]) | % change in neutrophils versus saline control group ([2]; 5 μg/animal/day for three days, student's T-test, P<0.046, FIG. 3B) | percentage of neutrophils at 72 h versus 0 h (paired T-test) [2] | GM-CSF receptor agonist activity (cell viability, ATPlite) (TF-1 cells [1]; 24 h post-treatment (FIG. 1A)) | GM-CSF receptor agonist activity (cell viability, ATPlite) (TF-1 cells [1]; 48 h post-treatment (FIG. 1B)) | number of live cells versus control (TF-1 cells [3]; 100 nM replenished daily, P<0.042) | live cell counts versus negative control (TF-1 cells [3]; 10 nM or 100 nM replenished daily, 72 h post-treatment)
1 | DFLLVIP (SEQ ID NO: 8) [Mimetic M2, human GM-CSF peptide fragment, aa 112-118 of mature GM-CSF] | active as a GM-CSF mimetic/agonist |  |  |  |  |  | 
2 | QPWEHVNAIQEAR {PEG6} DFLLVIP {PEG6} DFLLVIP {PEG6} QPWEHVNAIQEAR [Mimetic M6] |  | statistically significantly higher than that for the saline control group | statistically significantly higher at 72 h than at 0 h | GM-CSF receptor agonist activity | the agonist effect is also replicated | significantly lower than control | 
3 | QPWEHVNAIQEAR {PEG6} DFLLVIP {PEG6} QPWEHVNAIQEAR {PEG6} DFLLVIP [Mimetic M5] |  |  |  | GM-CSF receptor agonist activity | the agonist effect is also replicated |  | 
4 | QPWEHVNAIQEAR (SEQ ID NO: 7) [Mimetic M1] | active as a GM-CSF mimetic/agonist |  |  | GM-CSF receptor agonist activity | the agonist effect is also replicated |  | significant increase in the cell counts over the negative control
5 | GM-CSF: granulocyte-macrophage colony-stimulating factor; commercial human GM-CSF used as positive control |  |  | statistically significantly higher at 72 h than at 0 h |  |  |  | 
